Where a name gives a salt, the structure may show the parent alone.

The experiment relates to P. infestans. Briefly: whole plant or invertebrate. The class given is in vivo. The conditions noted are these: Phytophthora infestans, in Solanum tuberosum, read-out: P. infestans % inhibition.

As a reminder, the inhibition is the relative decrease from the control value, in per cent. With `Clc1ccc(-c2cc(-c3cccc(N4CCOCC4)c3)[nH]n2)cc1` [Compound 3, 4-{3-[3-(4-Chlorophenyl)-1H-pyrazol-5-yl]phenyl}morpholine], the inhibition at 100 µM was 20%.

`CN1CCOc2cc(-c3cc(-c4cccc(Br)c4)[nH]n3)ccc21` [Compound 44, 7-[5-(3-Bromophenyl)-1H-pyrazol-3-yl]-4-methyl-3,4-dihydro-2H-1,4-benzoxazine]: the inhibition at 100 µM stood at 5%.

Turning to `Nc1ccc(-c2cc(-c3ccccc3F)no2)cc1` [Compound 45, 5-(4-Aminophenyl)-3-(2-fluorophenyl)-isoxazole], the inhibition at 100 µM came out at 76%.

In the case of `CC(=O)Nc1ccc(-c2cc(-c3ccccc3F)no2)cc1` [Compound 46, N-{4-[3-(2-Fluorophenyl)-isoxazol-5-yl]phenyl}acetamide], the inhibition at 100 µM was determined as 7%. In the case of `Cc1ccc(S(=O)(=O)Nc2ccc(-c3cc(-c4ccccc4F)no3)cc2)cc1` [Compound 47, N-{4-[3-(2-Fluorophenyl)-isoxazol-5-yl]phenyl}-4-methylbenzenesulfonamide] it was 19%; in that of `COc1cc(-c2cc(-c3cccc(C(F)(F)F)c3)no2)ccc1Cl` [Compound 48, 5-(4-Chloro-3-methoxyphenyl)-3-[3-(trifluoromethyl)phenyl]-isoxazole], 21%. With `Oc1cc(-c2cc(-c3cccc(C(F)(F)F)c3)no2)ccc1Cl` [Compound 49, 5-(4-Chloro-3-hydroxyphenyl)-3-[3-(trifluoromethyl)phenyl]-isoxazole], the inhibition at 100 µM was 3%.

Regarding `Brc1cccc(-c2cc(-c3ccc4c(c3)OCCO4)n[nH]2)c1` [Compound 50, 5-(3-Bromophenyl)-3-(2,3-dihydro-1,4-benzodioxin-6-yl)-1H-pyrazole], the inhibition at 100 µM was 28%. On to `COc1cccc(-c2nc(-c3ccc(F)cc3)no2)c1` [Compound 51, 3-(4-Fluorophenyl)-5-(3-methoxyphenyl)-1,2,4-oxadiazole], for which the inhibition at 100 µM stood at 8%. In the case of `CCSc1ccc(-c2cc(-c3ccccc3Cl)no2)cc1` [Compound 52, 3-(2-Chlorophenyl)-5-[4-(ethylsulfanyl)phenyl]-1,2-oxazole] it was 9%.

`Cc1ccc(-c2cc(-c3cccc(OC(F)(F)F)c3)no2)cc1C` [Compound 53, 5-(3,4-Dimethylphenyl)-3-[3-(trifluoromethoxy)phenyl]-isoxazole]: the inhibition at 100 µM came out at 23%.

`O=C(Nc1cccc(-c2c[nH]c(-c3ccc(F)cc3)n2)c1)C(F)(F)F` [Compound 54, 2,2,2-Trifluoro-N-{3-[2-(4-fluorophenyl)-1H-imidazol-5-yl]phenyl}acetamide]: the inhibition at 100 µM turned out to be 91%.

For the molecule `O=C(Nc1ccc(O)cc1)c1ccc(-c2nc(-c3ccc(N4CCCC4)cc3)c[nH]2)cc1` [Compound 55, N-(4-Hydroxyphenyl)-4-{4-[4-(pyrrolidin-1-yl)phenyl]-1H-imidazol-2-yl}benzamide], the inhibition at 100 µM is 85%. Take `O=C(O)c1ccc(-c2n[nH]c(-c3ccc(Cl)cc3)n2)cc1` [Compound 56, 4-[5-(4-Chlorophenyl)-1H-1,2,4-triazol-3-yl]benzoic acid hydrochloride]: the inhibition at 100 µM worked out at 17%. In the case of `COc1ccc(NC(=O)Nc2ccc(-c3cc(-c4cccc(F)c4)on3)cc2)cc1` [Compound 57, 1-{4-[5-(3-Fluorophenyl)-1,2-oxazol-3-yl]phenyl}-3-(4-methoxyphenyl)urea] it was 8%; in that of `NCCCC[C@H](N)C(=O)Nc1ccc(-c2nc(-c3ccc(OC(F)(F)F)cc3)n[nH]2)cc1` [Compound 58, (2S)-2,6-Diamino-N-(4-{3-[4-(trifluoromethoxy)phenyl]-1H-1,2,4-triazol-5-yl}phenyl)hexanamide dihydrochloride], 89%; in that of `O=C(c1ccc(-c2n[nH]c(-c3ccc(Cl)cc3)n2)cc1)N1CCOCC1` [Compound 59, {4-[5-(4-Chlorophenyl)-1H-1,2,4-triazol-3-yl]phenyl}(morpholin-4-yl)methanone hydrochloride], 87%. On to `Oc1ccc(-c2coc(-c3ccc4ncccc4c3)n2)cc1` [Compound 60, 6-[4-(4-Hydroxyphenyl)-1,3-oxazol-2-yl]quinoline], for which the inhibition at 100 µM is 9%. Consider `O=C(Nc1ccc(-c2nc(-c3ccc(OC(F)(F)F)cc3)n[nH]2)cc1)C(F)(F)F` [Compound 61, 2,2,2-Trifluoro-N-(4-{5-[4-(trifluoromethoxy)phenyl]-1H-1,2,4-triazol-3-yl}phenyl)acetamide], for which the inhibition at 100 µM came out at 71%. `O=C(O)c1cccc(-c2noc(-c3ccccc3F)n2)c1` [Compound 62, 3-[5-(2-Fluorophenyl)-1,2,4-oxadiazol-3-yl]benzoic acid]: the inhibition at 100 µM stood at 64%. As to `COc1ccc(-c2nc(-c3ccc(C(F)(F)F)cc3)no2)cc1` [Compound 64, 5-(4-Methoxyphenyl)-3-[4-(trifluoromethyl)phenyl]-1,2,4-oxadiazole], the inhibition at 100 µM was 23%. Take `CSc1ccc(Cl)c(-c2nc(-c3cccc(OC(F)(F)F)c3)no2)c1` [Compound 65, 5-[2-Chloro-5-(methylsulfanyl)phenyl]-3-[3-(trifluoromethoxy)phenyl]-1,2,4-oxadiazole]: the inhibition at 100 µM was 31%. On to `CCc1ccc(-c2nc(-c3ccc(OC(F)(F)F)cc3)c[nH]2)cc1` [Compound 66, 2-(4-Ethylphenyl)-4-[4-(trifluoromethoxy)phenyl]-1H-imidazole], for which the inhibition at 100 µM was 29%. In the case of `COc1ccc(-c2noc(-c3cccc(Cl)c3)n2)cc1` [Compound 67, 5-(3-Chlorophenyl)-3-(4-methoxyphenyl)-1,2,4-oxadiazole], the inhibition at 100 µM was determined as 55%. With `COc1ccc(-c2noc(-c3ccccc3Br)n2)cc1` [Compound 68, 5-(2-Bromophenyl)-3-(4-methoxyphenyl)-1,2,4-oxadiazole], the inhibition at 100 µM stood at 17%. Take `O=C(O)c1cccc(-c2ncc(-c3ccc(C(F)(F)F)cc3O)o2)c1` [Compound 69, 3-{5-[2-Hydroxy-4-(trifluoromethyl)phenyl]-1,3-oxazol-2-yl}benzoic acid]: the inhibition at 100 µM turned out to be 99%. In the case of `Oc1ccc(-c2noc(-c3ccc(Cl)cc3)n2)cc1` [Compound 70, 5-(4-Chlorophenyl)-3-(4-hydroxyphenyl)-1,2,4-oxadiazole], the inhibition at 100 µM worked out at 33%. For `FC(F)(F)c1cccc(-c2cc(-c3ccc4c(c3)OCCO4)n[nH]2)c1` [Compound 71, 3-(2,3-Dihydro-1,4-benzodioxin-6-yl)-5-[3-(trifluoromethyl)phenyl]-1H-pyrazole], the inhibition at 100 µM stood at 36%.

With `Oc1ccc(-c2nc(-c3ccc(C(F)(F)F)cc3)no2)cc1` [Compound 72, 5-(4-Hydroxyphenyl]-3-[4-(trifluoromethyl)phenyl]-1,2,4-oxadiazole], the inhibition at 100 µM is 83%. In the case of `O=[N+]([O-])c1ccc(-c2nc(-c3cccc(C(F)(F)F)c3)no2)cc1` [Compound 73, 5-(4-Nitrophenyl)-3-[3-(trifluoromethyl)phenyl]-1,2,4-oxadiazole] it was 2%; in that of `Nc1ccc(-c2nc(-c3cccc(C(F)(F)F)c3)no2)cc1` [Compound 74, 5-(4-Aminophenyl)-3-[3-(trifluoromethyl)phenyl]-1,2,4-oxadiazole], 18%. The same measure for `CC(C)OC(=O)Nc1ccc(-c2nc(-c3cccc(C(F)(F)F)c3)no2)cc1` [Compound 75, Propan-2-yl (4-{3-[3-(trifluoromethyl)phenyl]-1,2,4-oxadiazol-5-yl}phenyl)carbamate]: 31%. Turning to `COC(=O)Nc1ccc(-c2nc(-c3ccc(OC(F)(F)F)cc3)n[nH]2)cc1` [Compound 77, Methyl (4-{5-[4-(trifluoromethoxy)phenyl]-1H-1,2,4-triazol-3-yl}phenyl)carbamate], the inhibition at 100 µM was determined as 6%. Consider `Oc1ccc(-c2c[nH]c(-c3ccc(Cl)cc3)n2)cc1` [Compound 78, 2-(4-Chlorophenyl)-5-(4-hydroxyphenyl)-1H-imidazole], for which the inhibition at 100 µM turned out to be 79%.

Regarding `Cc1cccc(-c2nc(-c3ccc(Cl)c(Cl)c3)c[nH]2)c1` [Compound 79, 5-(3,4-Dichlorophenyl)-2-(3-methylphenyl)-1H-imidazole], the inhibition at 100 µM worked out at 81%.

For `Clc1cccc(-c2cc(-c3ccc4c(c3)OCCO4)n[nH]2)c1` [Compound 80, 5-(3-Chlorophenyl)-3-(2,3-dihydro-1,4-benzodioxin-6-yl)-1H-pyrazole], the inhibition at 100 µM worked out at 77%. Take `Oc1ccc(F)cc1-c1c[nH]c(-c2ccc(C(F)(F)F)cc2)n1` [Compound 81, 5-(2-Hydroxy-5-fluorophenyl)-2-[4-(trifluoromethyl)phenyl]-1H-imidazole]: the inhibition at 100 µM came to 10%. Regarding `COCCNC(=O)Nc1ccc(-c2n[nH]c(-c3ccc(C(F)(F)F)cc3)n2)cc1` [Compound 82, 1-(2-Methoxyethyl)-3-(4-{5-[4-(trifluoromethyl)phenyl]-1H-1,2,4-triazol-3-yl}phenyl)urea], the inhibition at 100 µM was determined as 18%. Take `O=C(O)c1ccc(-c2cc(-c3cccc(C(F)(F)F)c3)no2)cc1` [Compound 83, 4-{3-[3-(Trifluoromethyl)phenyl]-1,2-oxazol-5-yl}benzoic acid]: the inhibition at 100 µM turned out to be 26%. As to `FC(F)(F)Oc1ccc(-c2c[nH]c(-c3ccc(Br)cc3)n2)cc1` [Compound 84, 2-(4-Bromophenyl)-5-[4-(trifluoromethoxy)phenyl]-1H-imidazole], the inhibition at 100 µM was 96%. With `Cc1ccc(-c2cc(-c3ccc(O)cc3)no2)cc1` [Compound 85, 3-(4-Hydroxyphenyl)-5-(4-methylphenyl)-1,2-oxazole], the inhibition at 100 µM stood at 10%. Turning to `COc1cccc(-c2cnc(-c3cccc(Br)c3)[nH]2)c1` [Compound 86, 2-(3-Bromophenyl)-5-(3-methoxyphenyl)-1H-imidazole], the inhibition at 100 µM was determined as 75%. Consider `Oc1cccc(-c2cnc(-c3cccc(Br)c3)[nH]2)c1` [Compound 87, 2-(3-Bromophenyl)-5-(3-hydroxyphenyl)-1H-imidazole], for which the inhibition at 100 µM amounted to 99%.

With `O=C(Nc1cccc(-c2c[nH]c(-c3ccc(F)cc3)n2)c1)c1ccccc1` [Compound 88, N-{3-[2-(4-fluorophenyl)-1H-imidazol-5-yl]phenyl}benzamide], the inhibition at 100 µM was 28%.

The record behind these values is US20250228242A1 (priority 2021, published 2025).
